According to ChEMBL document CHEMBL4359836, “Synthesis and Biological Assessment of Pyrrolobenzoxazine Scaffold as a Potent Antioxidant” (J Med Chem, 2019):
Active and inactive are the calls of the source. The calls are words filed in the database; no cut-off is given here.

Key:
[1] = Antioxidant activity in pH 7.4 phosphate buffer assessed as DPPH radical scavenging activity at 64 uM after 30 mins by spectrophotometric analysis (reference value: 0.811 +/- 0.02%); format: functional
[2] = Effect on intactness in goat cardiac mitochondria at 66 uM after 1 hr by Janus green-B staining based confocal microscopic method; format: ADME, subcellular, Capra hircus, Heart, Mitochrondria
[3] = tested on: Mitochondria; assay: Antioxidant activity in goat cardiac mitochondria assessed as inhibition of CuCl2/ascorbic acid-induced lipid peroxidation at 66 uM after 1 hr by thiobarbituric acid based UV-Visible spectrophotometric method (reference value: 60.11%); format: functional, subcellular; conditions: Capra hircus, Heart, Mitochrondria
[4] = tested on: Mitochondria; assay: Protective activity against CuCl2/ascorbic acid-induced apoptotic alteration in goat cardiac mitochondria assessed as reversal of CuCl2/ascorbic acid-induced reduction in cytochrome c oxidase activity incubated for 1 hr and measured at 10 secs time interval for 90 secs by spectrophotometric analysis; format: functional, subcellular; conditions: Capra hircus; Heart; Mitochrondria
[5] = tested on: Mitochondria; assay: Antioxidant activity in goat cardiac mitochondria assessed as reversal of CuCl2/ascorbic acid-induced reduction in GSH level at 8.25 uM after 1 hr by DTNB reagent based method (reference value: 75.89%); format: functional, subcellular; parameters: scale not given: the % may be the effect or the level left; conditions: Capra hircus, Heart, Mitochrondria
[6] = tested on: Mitochondria; assay: Protective activity in goat cardiac mitochondria assessed as reduction in CuCl2/ascorbic acid-induced calcium accumulation at 66 uM after 60 min (reference value: 25.32%); format: functional, subcellular; parameters: scale not given: the % may be the effect or the level left; conditions: Capra hircus, Heart, Mitochrondria
[7] = tested on: Mitochondria; assay: Antioxidant activity in goat cardiac mitochondria assessed as reversal of CuCl2/ascorbic acid-induced reduction in ICDH level at 8.25 uM using isocitrate as substrate after 1 hr (reference value: 65.58%); format: functional, subcellular; parameters: scale not given: the % may be the effect or the level left; conditions: Capra hircus, Heart, Mitochrondria
[8] = Antioxidant activity in pH 10 Tris-HCl buffer assessed as superoxide anion radical scavenging activity by measuring rate of epinephrine auto-oxidation by spectrophotometric analysis; format: functional
[9] = Effect on GSH level in goat cardiac mitochondria at 8.25 to 66 uM after 1 hr by DTNB reagent based method; format: ADME, subcellular, Capra hircus, Heart, Mitochrondria
[10] = tested on: Mitochondria; assay: Protective activity in goat cardiac mitochondria assessed as inhibition of CuCl2/ascorbic acid-induced convoluted membranes at 66 uM incubated for 1 hr by scanning electron microscopy; format: functional, subcellular; conditions: Capra hircus, Heart, Mitochrondria
[11] = tested on: Mitochondria; assay: Protective activity against CuCl2/ascorbic acid-induced apoptotic alteration in goat cardiac mitochondria assessed as reversal of CuCl2/ascorbic acid-induced reduction in cytochrome c oxidase activity at 66 uM measured at 10 secs time interval for 90 secs by spectrophotometric analysis relative to control; format: functional, subcellular; conditions: Capra hircus, Heart, Mitochrondria
[12] = Binding affinity to Cu2+ assessed as decrease in heat change at 66 uM in presence of CuCl2 by isothermal titration calorimetry
[13] = tested on: Mitochondria; assay: Protective activity against CuCl2/ascorbic acid-induced apoptotic alteration in goat cardiac mitochondria assessed as reversal of CuCl2/ascorbic acid-induced reduction in cytochrome c oxidoreductase activity at 16.5 uM incubated for 1 hr and measured at 10 secs time interval for 90 secs by spectrophotometric analysis (reference value: 47.82%); format: functional, subcellular; parameters: scale not given: the % may be the effect or the level left; conditions: Capra hircus, Heart, Mitochrondria
[14] = Inhibition of ICDH in goat cardiac mitochondria assessed as effect on Vmax at 66 uM using isocitrate as substrate after 1 hr by Lineweaver-Burk double reciprocal plot analysis; parameters: species or system Capra hircus, Heart
[15] = tested on: Mitochondria; assay: Protective activity against CuCl2/ascorbic acid-induced apoptotic alteration in goat cardiac mitochondria assessed as reversal of CuCl2/ascorbic acid-induced reduction in cytochrome c oxidoreductase activity at 66 uM incubated for 1 hr and measured at 10 secs time interval for 90 secs by spectrophotometric analysis (reference value: 47.82%); format: functional, subcellular; parameters: scale not given: the % may be the effect or the level left; conditions: Capra hircus, Heart, Mitochrondria
[16] = tested on: Mitochondria; assay: Antioxidant activity in goat cardiac mitochondria assessed as reversal of CuCl2/ascorbic acid-induced reduction in PDH level at 16.5 uM using sodium pyruvate as substrate after 1 hr spectrophotometric analysis (reference value: 66.25%); format: functional, subcellular; parameters: scale not given: the % may be the effect or the level left; conditions: Capra hircus, Heart, Mitochrondria
[17] = tested on: Mitochondria; assay: Antioxidant activity in goat cardiac mitochondria assessed as reversal of CuCl2/ascorbic acid-induced reduction in alpha-KGDH level at 8.25 uM using alpha-ketoglutarate as substrate after 1 hr (reference value: 69.78%); format: functional, subcellular; parameters: scale not given: the % may be the effect or the level left; conditions: Capra hircus, Heart, Mitochrondria
[18] = tested on: Mitochondria; assay: Antioxidant activity in goat cardiac mitochondria assessed as inhibition of CuCl2/ascorbic acid-induced protein carbonyl content at 66 uM after 1 hr by DNPH assay relative to control; format: functional, subcellular; conditions: Capra hircus, Heart, Mitochrondria
[19] = Effect on SDH levels in goat cardiac mitochondria at 8.25 to 66 uM using succinate as substrate after 1 hr by spectrophotometric analysis; format: ADME, subcellular, Capra hircus, Heart, Mitochrondria
[20] = tested on: Mitochondria; assay: Antioxidant activity in goat cardiac mitochondria assessed as reversal of CuCl2/ascorbic acid-induced reduction in alpha-KGDH level at 33 uM using alpha-ketoglutarate as substrate after 1 hr relative to control; format: functional, subcellular; conditions: Capra hircus, Heart, Mitochrondria
[21] = Binding affinity to Cu2+ assessed as binding constant K1 at 66 uM in presence of ascorbic acid/CuCl2 by isothermal titration calorimetry
[22] = tested on: Mitochondria; assay: Antioxidant activity in goat cardiac mitochondria assessed as reversal of CuCl2/ascorbic acid-induced reduction in PDH level at 33 uM using sodium pyruvate as substrate after 1 hr by spectrophotometric analysis relative to control; format: functional, subcellular; conditions: Capra hircus, Heart, Mitochrondria
[23] = Antioxidant activity in pH 7.4 phosphate buffer assessed as H2O2 scavenging activity by measuring H2O2 decomposition at 1.34 to 10.72 uM by spectrophotometric analysis; format: functional
[24] = Binding affinity to Cu2+ assessed as binding constant K4 at 66 uM in presence of CuCl2 by isothermal titration calorimetry
[25] = Toxicity in goat cardiac mitochondria assessed as effect on calcium accumulation at 66 uM after 60 mins by calcein AM dye-based flow cytometric analysis; format: subcellular, Capra hircus, Heart, Mitochrondria; conditions: 1 h
[26] = species: Capra hircus; assay: Effect on PDH in goat cardiac mitochondria assessed as reversal of CuCl2/ascorbic acid induced reduction in Vmax at 66 uM using sodium pyruvate as substrate after 1 hr by Lineweaver-Burk double reciprocal plot analysis; conditions: Heart
[27] = tested on: Mitochondria; assay: Antioxidant activity in goat cardiac mitochondria assessed as reversal of CuCl2/ascorbic acid-induced reduction in ICDH level at 33 uM using isocitrate as substrate after 1 hr relative to control; format: functional, subcellular; conditions: Capra hircus, Heart, Mitochrondria
[28] = Inhibition of alpha-ketoglutarate dehydrogenase in goat cardiac mitochondria assessed as effect on Vmax at 66 uM using alpha-ketoglutarate as substrate after 1 hr by Lineweaver-Burk double reciprocal plot analysis; parameters: species or system Capra hircus, Heart
[29] = tested on: Mitochondria; assay: Protective activity against CuCl2/ascorbic acid-induced apoptotic alteration in goat cardiac mitochondria assessed as reversal of CuCl2/ascorbic acid-induced reduction in cytochrome c oxidase activity at 33 uM incubated for 1 hr and measured at 10 secs time interval for 90 secs by spectrophotometric analysis relative to control; format: functional, subcellular; conditions: Capra hircus, Heart, Mitochrondria
[30] = tested on: Mitochondria; assay: Antioxidant activity in goat cardiac mitochondria assessed as inhibition of CuCl2/ascorbic acid-induced manganese superoxide dismutase at 33 uM after 1 hr by pyrogallol autoxidation method relative to control; format: functional, subcellular; conditions: Capra hircus, Heart, Mitochrondria
[31] = tested on: Mitochondria; assay: Protective activity against CuCl2/ascorbic acid-induced apoptotic alteration in goat cardiac mitochondria assessed as reversal of CuCl2/ascorbic acid-induced reduction in cytochrome c oxidoreductase activity at 33 uM measured at 10 secs time interval for 90 secs by spectrophotometric analysis (reference value: 47.82%); format: functional, subcellular; parameters: scale not given: the % may be the effect or the level left; conditions: Capra hircus, Heart, Mitochrondria
[32] = tested on: Mitochondria; assay: Antioxidant activity in goat cardiac mitochondria assessed as inhibition of CuCl2/ascorbic acid-induced lipid peroxidation at 8.25 uM after 1 hr by thiobarbituric acid based UV-Visible spectrophotometric method (reference value: 60.11%); format: functional, subcellular; conditions: Capra hircus, Heart, Mitochrondria

In the case of `CCOC(=O)c1c(-c2ccc(O)c(OC)c2)cn2c1c(=O)oc1ccccc12`, the Activity [1] is reported as 82.3%, the Activity [2] is reported as “Non-Toxic” and the inhibition [3] is reported as 36.4%. The Activity [4] was “Dose-dependent effect”, the Activity [5] was 79.6% and the Activity [6] was 15%. For the same molecule, the Activity [7] was 37.7%, the Activity [8] was “Dose-dependent effect” and the Activity [9] was “Non-Toxic”. For the same molecule, the Activity [10] was “Active”, the fold change (FC) [11] was 5.12 and the Activity [12] was “Active”. The Activity [13] was 35.2%, the “inhibition (INH)” value [14] was “Not Active” and the Activity [15] was 85.2%. For the same molecule, the Activity [16] was 94.5%, the Activity [17] was 43.1% and the inhibition [18] was 72.1%. The Activity [19] was “Non-Toxic”, the fold change (FC) [20] was 2.74 and the K [21] was 8.7 ×10⁴ /M. For the same molecule, the fold change (FC) [22] was 2.94, the Activity [23] was “inactive” and the K [24] was 9 ×10⁴ /M. For the same molecule, the Activity [25] was “Non-Toxic”, the Activity [26] was “Active” and the fold change (FC) [27] was 2.4. For the same molecule, the “inhibition (INH)” value [28] was “Not Active”, the fold change (FC) [29] was 3.5 and the inhibition [30] was 41.6%. For the same molecule, the Activity [31] was 49.8% and the inhibition [32] was 12.3%.
